# Assay results as given in patent US12565488B2, “Inhibitors of influenza virus replication” (COCRYSTAL PHARMA, INC., priority 2018, dated 2026).
# Tested on: Influenza type A (strain A/PR/8/34, ATCC VR-95)
# Experiment: Influenza antiviral assay: inhibition of virus-induced cytopathic effects (CPE) in MDCK cells, XTT dye reduction
# Assay type: cell-based
# Conditions: Influenza A virus, H1N1 / PR/8, MDCK, 96 h, Influenza A (H1N1) replication in MDCK cells, CPE reduction by XTT at 4 days post-infection; read-out: Influenza H1N1 affinity, EC50
smiles,measurement,value
O=C(O)c1c(O)c(=O)ccn1NC1c2ccccc2S(=O)(=O)Cc2c1ccc(F)c2F (centres unmarked) [Compound 126],EC50,10 to 100 µM
NC(=O)c1c(O)c(=O)ccn1NC1c2ccccc2SCc2c1ccc(F)c2F (centres unmarked) [Compound 127],EC50,1 to 10 µM
O=C(O)c1c(O)c(=O)ccn1NC1c2ccccc2SCc2c1cccc2N1CCCC1=O (centres unmarked) [Compound 128],EC50,1 to 10 µM
O=C(NO)c1c(O)c(=O)ccn1NC1c2ccccc2SCc2c1ccc(F)c2F (centres unmarked) [Compound 129],EC50,1 to 10 µM
"O=C(NOCc1ccccc1)c1c(O)c(=O)ccn1NC1c2ccccc2SCc2c1ccc(F)c2F (centres unmarked) [Compound 130, N-(benzyloxy)-1-((7,8-difluoro-6,11-dihydrodibenzo[b,e]thiepin-11-yl)amino)-3-hydroxy-4-oxo-1,4-dihydropyridine-2-carboxamide]",EC50,1 to 10 µM
